Several values for one entry are separate records, joined by “and”; a condition that tells them apart may be missing. Equal entries are not always repeated.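 In this assay, cells in 96-well plates receive the compound at five concentrations for 48 hours. Endpoints are linearly interpolated between the surrounding concentrations. GI50: concentration for 50% inhibition of growth. TGI: concentration producing complete growth inhibition.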
Legend:
Assay in all cases: growth of human tumour cells (NCI), 48 h
NCI-H226 lung = system: NCI-H226 lung
CCRF-CEM leukemia = system: CCRF-CEM leukemia
HL-60(TB) leukemia = system: HL-60(TB) leukemia
NCI-H460 lung = system: NCI-H460 lung
LOX IMVI melanoma = system: LOX IMVI melanoma
EKVX NSCLC = system: EKVX NSCLC
U251 CNS = system: U251 CNS
A498 renal = system: A498 renal
MDA-MB-231 breast = system: MDA-MB-231 breast
SR leukemia = system: SR leukemia

Compound	GI50 (NCI-H226 lung)	TGI (NCI-H226 lung)	GI50 (CCRF-CEM leukemia)	TGI (CCRF-CEM leukemia)	GI50 (HL-60(TB) leukemia)	TGI (HL-60(TB) leukemia)	GI50 (NCI-H460 lung)	TGI (NCI-H460 lung)	GI50 (LOX IMVI melanoma)	TGI (LOX IMVI melanoma)	GI50 (EKVX NSCLC)	TGI (EKVX NSCLC)	GI50 (U251 CNS)	TGI (U251 CNS)	GI50 (A498 renal)	TGI (A498 renal)	GI50 (MDA-MB-231 breast)	TGI (MDA-MB-231 breast)	GI50 (SR leukemia)	TGI (SR leukemia)
Cc1ccc(C(=O)NCCCOc2ccc(N3C(N)=NC(N)=NC3(C)C)cc2Cl)cc1S(=O)(=O)F	> 100000 nM	> 100 µM	5330 nM	> 100 µM	> 100000 nM	> 100 µM	8440 nM	> 100 µM	5050 nM	> 100000 nM	> 100000 nM	> 100 µM	7720 nM	> 100 µM	> 100000 nM	> 100 µM	> 100000 nM	> 100 µM	> 100000 nM	> 100 µM
CNCC/C=C1\c2cc3c(cc2-c2c1c1cc(OC)c(OC)cc1c(=O)n2C)OCO3	232 nM	2.11 µM	< 10 nM		239 nM	2.57 µM	196 nM	5.97 µM	510 nM	2570 nM	2360 nM	18.3 µM	309 nM	19.1 µM	2970 nM	12 µM	1780 nM	13.6 µM	< 10 nM	
Cc1ccc(S(=O)(=O)OCC#CCOS(=O)(=O)c2ccc(C)cc2)cc1	5830 nM	12.9 µM	1960 nM	5.79 µM	1510 nM	3.55 µM	1800 nM	4.07 µM	1150 nM	2560 nM	2080 nM	4.38 µM	1690 nM	3.22 µM	4340 nM	11.7 µM	3390 nM	11 µM	1270 nM	3.89 µM
CC[C@@]1(OC(=O)C(N)CCCCN)C(=O)OCc2c1cc1n(c2=O)Cc2cc3ccccc3nc2-1 (stereo partly drawn)		2.7 µM		0.115 µM		0.127 µM		0.372 µM		180 nM		> 30.6 µM		> 11.6 µM		0.455 µM		> 100 µM		< 0.0217 µM
O=C1Nc2cc(-c3cccc(O)c3)ccc2/C1=C/c1ccc[nH]1	2790 nM	11.4 µM	2270 nM	> 100 µM	1510 nM	7.05 µM	460 nM	3.96 µM	1310 nM	3110 nM	121 nM	17 µM	2380 nM	12.1 µM	1480 nM	4.1 µM	163 nM	7.39 µM	28.2 nM	1.82 µM
CCN(CC)c1c(-c2ccccc2)n[nH]c1C(=O)OC	16900 nM	38.5 µM	22800 nM	71 µM	18700 nM	48.8 µM	30300 nM	> 100 µM	35300 nM	> 100000 nM	21200 nM	56.8 µM	25200 nM	66.4 µM	519 nM	31.7 µM	35800 nM	60.4 µM	17200 nM	80.1 µM
CS(=O)(=O)Nc1cc(-c2ccc3ncnc(Nc4ccc(F)c(Cl)c4)c3c2)cnc1Cl	1630 nM and 1330 nM	22.9 µM and 13.7 µM	378 nM and 309 nM	11.9 µM and 28.1 µM	514 nM and 302 nM	14.7 µM and 3.35 µM	753 nM and 980 nM	11.5 µM and 12.9 µM	503 nM and 468 nM	3490 nM and 2780 nM	340 nM and 352 nM	3.19 µM and 2.61 µM	511 nM and 856 nM	2.57 µM and 9.19 µM	199 nM and 130 nM	0.664 µM and 0.555 µM	980 nM and 1070 nM	3.21 µM and 5.92 µM	577 nM and 2200 nM	5.56 µM and 43 µM
CC(C)(C)OC(=O)NCCCCn1c2c(c3ccccc3c1=O)C(=O)c1ccccc1-2	14100 nM	51.2 µM	9520 nM	> 100 µM	4710 nM	59.4 µM	5900 nM	34.8 µM	12500 nM	36700 nM	61500 nM	> 100 µM	15900 nM	37.6 µM	23400 nM	65.3 µM	17100 nM	53.1 µM	3590 nM	42.4 µM
c1ccc(CN2CCc3[nH]c4ccccc4c3C2)cc1		> 96.8 µM		> 82.6 µM		46.3 µM		31 µM		40700 nM		> 86.8 µM		53.8 µM		88.1 µM		48.9 µM		> 76.6 µM
COCCOCCOCc1n(Cc2ccc3ccccc3c2)c2ccccc2[n+]1Cc1ccc2ccccc2c1	957 nM	2.53 µM	488 nM	2.29 µM	115 nM	0.38 µM	483 nM	1.85 µM	419 nM	1670 nM	1040 nM	2.68 µM	352 nM	1.48 µM	920 nM	2.19 µM	380 nM	1.64 µM	360 nM	1.6 µM

Source: PubChem BioAssay (NCI)
